Source: PMC9374667 (Communications Biology, 2022)
Several values for one entry are separate records, joined by “and”; a condition that tells them apart may be missing. Identical values can stand only once.

Columns and labels:
TBK1 = target: T1, TBK1 (Mus musculus, UniProt Q9WUN2); experiment: TBK1 activity assay in BAT; format: in vivo, mice; design: The adipose tissue was ultrasound-crushed in PBS buffer solution (1:9 w/v) to prepare the tissue homogenate; from tissue; host or cells: epididymal white adipose tissue (eWAT) and brown adipose tissue (BAT) of C57BLKS WT and db/db mice; conditions: for the expression of TBK1 in BAT of db/db mice: Figure 6m, individual values
T1 sequence (Q9WUN2 1-729): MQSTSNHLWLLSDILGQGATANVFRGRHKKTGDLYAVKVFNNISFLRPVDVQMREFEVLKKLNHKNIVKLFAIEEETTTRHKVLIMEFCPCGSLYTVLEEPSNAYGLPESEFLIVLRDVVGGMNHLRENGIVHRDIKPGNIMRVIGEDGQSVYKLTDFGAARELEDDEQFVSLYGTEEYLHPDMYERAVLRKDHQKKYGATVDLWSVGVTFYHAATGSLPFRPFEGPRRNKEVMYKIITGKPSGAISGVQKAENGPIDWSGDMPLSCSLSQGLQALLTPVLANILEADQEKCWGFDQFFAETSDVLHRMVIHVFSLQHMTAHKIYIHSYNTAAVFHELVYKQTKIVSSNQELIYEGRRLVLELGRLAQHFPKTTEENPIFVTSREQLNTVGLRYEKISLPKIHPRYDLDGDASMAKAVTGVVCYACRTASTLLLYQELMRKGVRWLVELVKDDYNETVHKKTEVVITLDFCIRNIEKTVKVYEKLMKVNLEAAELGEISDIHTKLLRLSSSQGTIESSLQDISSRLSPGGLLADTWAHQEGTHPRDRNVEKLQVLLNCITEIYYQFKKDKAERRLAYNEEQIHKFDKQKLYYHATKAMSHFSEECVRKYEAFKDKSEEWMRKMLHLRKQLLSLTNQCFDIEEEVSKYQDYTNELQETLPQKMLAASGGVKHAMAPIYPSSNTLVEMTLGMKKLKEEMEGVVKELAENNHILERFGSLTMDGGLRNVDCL
Protocol: (§1) The adipose tissue was ultrasound-crushed in PBS buffer solution (1:9 w/v) to prepare the tissue homogenate. The tissue homogenate was centrifuged at 5000 × g for 10 min, and the supernatant was taken for detection. Briefly, samples or standards were added to the microplates pre-coated with IKKε antibody or TBK1 antibody. Then horseradish peroxidase (HRP) labeled antibody was added and incubated at 37 °C for 60 min. After thorough washing, the 3,3′,5,5′-tetramethylbenzidine (TMB) substrate was used for color development, and the absorbance (OD value) was determined at 450 nm.

IKKε = target: T2, IKKε (Mus musculus, UniProt Q9R0T8); experiment: IKKε activity assay in eWAT; format: in vivo, mice; design: The adipose tissue was ultrasound-crushed in PBS buffer solution (1:9 w/v) to prepare the tissue homogenate; from tissue; host or cells: epididymal white adipose tissue (eWAT) and brown adipose tissue (BAT) of C57BLKS WT and db/db mice; conditions: for the expression of IKKε in eWAT of db/db mice: Figure 6b, individual values
T2 sequence (Q9R0T8 1-717): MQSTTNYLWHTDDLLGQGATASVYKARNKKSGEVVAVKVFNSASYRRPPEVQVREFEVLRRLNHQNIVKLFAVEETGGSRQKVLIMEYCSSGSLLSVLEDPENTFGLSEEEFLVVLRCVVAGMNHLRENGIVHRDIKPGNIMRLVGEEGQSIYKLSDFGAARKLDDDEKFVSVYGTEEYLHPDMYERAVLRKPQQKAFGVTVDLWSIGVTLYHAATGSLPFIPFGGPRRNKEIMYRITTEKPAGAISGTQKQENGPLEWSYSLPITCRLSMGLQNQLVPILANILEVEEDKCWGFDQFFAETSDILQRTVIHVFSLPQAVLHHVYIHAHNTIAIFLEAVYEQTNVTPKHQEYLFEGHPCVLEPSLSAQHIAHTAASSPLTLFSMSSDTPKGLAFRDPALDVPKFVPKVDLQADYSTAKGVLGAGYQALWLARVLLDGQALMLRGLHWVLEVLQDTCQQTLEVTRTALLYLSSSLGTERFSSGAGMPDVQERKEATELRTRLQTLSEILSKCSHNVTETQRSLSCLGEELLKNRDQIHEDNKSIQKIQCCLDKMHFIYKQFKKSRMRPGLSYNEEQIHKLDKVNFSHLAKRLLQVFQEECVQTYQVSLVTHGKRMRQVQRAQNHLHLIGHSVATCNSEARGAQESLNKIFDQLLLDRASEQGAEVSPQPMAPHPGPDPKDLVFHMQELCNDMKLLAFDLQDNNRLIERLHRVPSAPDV
Protocol: as §1

cAMP, glycerol release = experiment: cAMP levels and glycerol release in TNF-α induced 3T3-L1 adipocytes (isoproterenol); format: cell-based, Murine
Protocol: The epididymal adipose tissue was dissected, the fresh adipose tissue was weighed and rapidly rinsed with PBS. The adipose tissue was cut and incubated with isoproterenol (10 μM) for 2 h, and homogenized in a cold cleavage buffer to prepare the adipose tissue homogenate. Then the homogenate was centrifuged at 12,000 × g at 4 °C for 15 min, and the supernatant was collected. […] Then the cells were lysed in a petri dish, scraped off, and centrifuged at 12,000 × g at 4 °C for 15 min before the supernatant was collected. […] And concentrations were further standardized according to protein concentration.

CC(C)Cc1ccc(C(C)C(=O)[O-])cc1.COc1ccc2cc3[n+](cc2c1OC)CCc1cc2c(cc1-3)OCO2.O.O.O.O [BJ, berberine-ibuprofen]
the expression of TBK1 in BAT of db/db mice (TBK1; db/db+BJ 75mg/kg): 0.366 U/g and 0.397 U/g and 0.402 U/g and 0.336 U/g and 0.384 U/g and 0.344 U/g
the expression of TBK1 in BAT of db/db mice (TBK1; db/db+BJ 150mg/kg): 0.338 U/g and 0.377 U/g and 0.358 U/g and 0.428 U/g and 0.335 U/g and 0.369 U/g
TBK1 activity and expression levels in BAT (TBK1; db/db mice, both doses of BJ): had no effect
the expression of IKKε in eWAT of db/db mice (IKKε; db/db+BJ 75mg/kg): 0.731 U/g and 0.653 U/g and 0.634 U/g and 0.668 U/g and 0.673 U/g and 0.708 U/g
the expression of IKKε in eWAT of db/db mice (IKKε; db/db+BJ 150mg/kg): 0.443 U/g and 0.517 U/g and 0.416 U/g and 0.438 U/g and 0.466 U/g and 0.49 U/g
IKKε kinase activity in eWAT (IKKε; db/db mice, both doses of BJ (75 and 150 mg/kg)): significantly reduced
Glycerol release in differentiated 3T3-L1 adipocytes induced by TNF-α (cAMP, glycerol release; BJ): 92.8546 µmol/L and 97.0733 µmol/L and 93.6983 µmol/L
cAMP levels in differentiated 3T3-L1 adipocytes induced by TNF-α (cAMP, glycerol release; BJ): 0.2237 pmol/mg protein and 0.2235 pmol/mg protein and 0.2307 pmol/mg protein
Glycerol release in differentiated 3T3-L1 adipocytes induced by TNF-α (cAMP, glycerol release; BJ+TNF-α(50ng/ml)): 63.3237 µmol/L and 59.9487 µmol/L and 58.2612 µmol/L
cAMP levels in differentiated 3T3-L1 adipocytes induced by TNF-α (cAMP, glycerol release; BJ+TNF-α(50ng/ml)): 0.1653 pmol/mg protein and 0.1544 pmol/mg protein and 0.1605 pmol/mg protein
Glycerol release in differentiated 3T3-L1 adipocytes induced by TNF-α (cAMP, glycerol release; ISO+BJ): 186.51 µmol/L and 191.572 µmol/L and 183.135 µmol/L
cAMP levels in differentiated 3T3-L1 adipocytes induced by TNF-α (cAMP, glycerol release; ISO+BJ): 0.3839 pmol/mg protein and 0.37 pmol/mg protein and 0.3787 pmol/mg protein
Glycerol release in differentiated 3T3-L1 adipocytes induced by TNF-α (cAMP, glycerol release; ISO+BJ+TNF-α(50ng/ml)): 167.104 µmol/L and 166.26 µmol/L
cAMP levels in differentiated 3T3-L1 adipocytes induced by TNF-α (cAMP, glycerol release; ISO+BJ+TNF-α(50ng/ml)): 0.248 pmol/mg protein and 0.2422 pmol/mg protein and 0.2461 pmol/mg protein
Glycerol release and cAMP levels (cAMP, glycerol release; TNF-α induced 3T3-L1 adipocytes, BJ pretreatment, isoproterenol stimulation): promoted glycerol release, increased cAMP levels
